# Reference: US8053457B2, “3-imidazolyl-indoles for the treatment of proliferative diseases” (Novartis AG, priority 2007, dated 2011)
# Columns and labels:
# [1] = molecular target: T1, Hdm2 protein (amino acids 2-185) (Homo sapiens, UniProt Q00987); experiment: Fluorescence polarisation assay, inhibition of p53-Hdm2 interaction; assay type: binding; conditions: Hdm2 3 nM, Cy5-labelled p53-derived peptide 1 nM
# T1 construct: Hdm2 protein (amino acids 2-185)
# Description: Fluorescence Polarisation Assay
# The inhibition of p53-Hdm2 interaction is measured by fluorescence polarization. Fluorescence polarization measures the rotational movement of molecules in a homogeneous suspension. For this assay, Hdm2 protein (amino acids 2-185) is combined with a Cy5-labelled p53-derived peptide optimised for Hdm2 binding (J. Med. Chem. 2000, 43, 3205-3208). Upon excitation of the Cy5 fluorescent ligand with linearly polarized light, the peptide rotates faster and emits light which is perpendicularly polarized. If the peptide is bound by Hdm2, rotation will slow down and the perpendicular component will decrease. Disruption of the formation of the peptide-Hdm2 complex due to an inhibitor molecule binding to the p53 binding site of Hdm2 results in faster rotation of the peptide. The ratiometric polarization assay readout is calculated from the parallel and perpendicular components of the fluorescence light with respect to the polarization of the excitation light.
# The test is performed by combining 7 μl compounds diluted in dimethyl sulfoxide (DMSO) (10% final concentration) with 31.5 μl […] (final concentration 3 nM) in reaction buffer (PBS, 0.1% CHAPS, 1 mM DTT (dithiothreitol)). The solution is allowed to preincubate for 5 minutes at room temperature, followed by addition of 31.5 μl peptide in reaction buffer (final concentration 1 nM), and a further 5 minutes of incubation. A final volume of 20 μl (in triplicate) is distributed into small volume black 384-well plates (Greiner Bio-One GmbH, Frickenhausen, Germany). For measurement of samples, an Analyst AD multimode microplate reader (Molecular Devices Corporation, Sunnyvale, Calif., USA) with the following settings is used: Dichroic mirror 650 nm, Excitation 630 nm, Emission 695 nm. Raw values are expressed as percent of DMSO control, where background (reaction buffer with peptide but no Hdm2) is subtracted first from raw values. IC50 values are calculated by curve fitting using XLfit. If not specified, reagents were purchased from Sigma Chemical Co.
# [2] = molecular target: T2, MDM4 protein (amino acids 2-185) (Homo sapiens, UniProt O15151); experiment: Time resolved fluorescence energy transfer (TR-FRET) assay, inhibition of p53-Hdm4 interaction; assay type: binding; conditions: MDM4-Bio 10 nM, Cy5-p53 peptide 20 nM
# T2 construct: MDM4 protein (amino acids 2-185), tagged with a C-terminal Biotin moiety
# T2 sequence (O15151 2-185): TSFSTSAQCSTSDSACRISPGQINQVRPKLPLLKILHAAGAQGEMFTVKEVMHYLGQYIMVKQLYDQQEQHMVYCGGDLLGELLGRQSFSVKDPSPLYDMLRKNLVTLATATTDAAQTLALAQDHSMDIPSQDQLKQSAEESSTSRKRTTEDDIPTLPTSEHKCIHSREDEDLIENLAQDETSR
# Description: Time Resolved Fluorescence Energy Transfer (TR-FRET) Assay
# The inhibition of p53-Hdm4 interaction is measured by time resolved fluorescence energy transfer (TR-FRET). Fluorescence energy transfer (or Foerster resonance energy transfer) describes an energy transfer between donor and acceptor fluorescent molecules. For this assay, MDM4 protein (amino acids 2-185), tagged with a C-terminal Biotin moiety, is used in combination with a Europium labeled streptavidin (Perkin Elmer, Inc., Waltham, Mass., USA) serving as the donor fluorophore. The p53 derived, Cy5 labeled peptide Cy5-TFSDLWKLL (p53 aa18-26) is the energy acceptor. Upon excitation of the donor molecule at 340 nm, binding interaction between MDM4 and the p53 peptide induces energy transfer and enhanced response at the acceptor emission wavelength at 665 nm. Disruption of the formation of the p53-MDM4 complex due to an inhibitor molecule binding to the p53 binding site of MDM4 results in increased donor emission at 615 nm. The ratiometric FRET assay readout is calculated from the raw data of the two distinct fluorescence signals measured in time resolved mode (countrate 665 nm/countrate 615 nm×1000).
# The test is performed in white 1536w microtiterplates (Greiner Bio-One GmbH, Frickenhausen, Germany) in a total volume of 3.1 μl by combining 100 nl of compounds diluted in 90% DMSO/10% H2O (3.2% final DMSO concentration) with 2 μl Europium labeled streptavidin (final concentration 2.5 nM) in reaction buffer (PBS, 125 mM NaCl, 0.001% Novexin (consists of carbohydrate polymers (Novexin polymers), designed to increase the solubility and stability of proteins; Novexin Ltd., Cambridgeshire, United Kingdom), Gelatin 0.01%, 0.2% Pluronic (block copolymer fromethylenoxide and propyleneoxide, BASF, Ludwigshafen, Germany), 1 mM DTT), followed by the addition of 0.5 μl MDM4-Bio diluted in assay buffer (final concentration 10 nM). Allow the solution to pre-incubate for 15 minutes at room temperature, followed by addition of 0.5 μl Cy5-p53 peptide in assay buffer (final concentration 20 nM). Incubate at room temperature for 10 minutes prior to reading the plate. For measurement of samples, an Analyst GT multimode microplate reader (Molecular Devices) with the following settings is used: Dichroic mirror 380 nm, Excitation 330 nm, Emission Donor 615 nm and Emission Acceptor 665 nm. IC50 values are calculated by curve fitting using XLfit. If not specified, reagents are purchased from Sigma Chemical Co, St. Louis, Mo., USA.
# T1 sequence (Q00987 2-185): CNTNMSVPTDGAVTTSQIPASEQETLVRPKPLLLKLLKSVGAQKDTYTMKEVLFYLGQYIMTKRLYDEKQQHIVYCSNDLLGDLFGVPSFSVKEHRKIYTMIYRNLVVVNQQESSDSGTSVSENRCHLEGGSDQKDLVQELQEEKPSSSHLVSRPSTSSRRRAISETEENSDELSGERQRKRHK
SMILES,IC50 [1] [µM],IC50 [2] [µM]
Fc1cc2c(-c3c(-c4ccccc4)ncn3Cc3ccc4cc[nH]c4c3)c[nH]c2cc1Cl [Example 135],7.2,68.3
"Oc1cccc(-c2ncn(Cc3ccc(Cl)cc3)c2-c2c[nH]c3cc(Cl)c(F)cc23)c1 [Example 142, 3-[1-(4-Chloro-benzyl)-5-(6-chloro-5-fluoro-1H-indol-3-yl)-1H-imidazol-4-yl]-phenol]",0.64,43.4
OCc1cc(Cl)ccc1Cn1cnc(-c2ccccc2)c1-c1c[nH]c2cc(Cl)c(F)cc12 [Example 148],0.11,55.3

# Continued by falling IC50 [1], values first:
IC50 [1] [µM],IC50 [2] [µM],SMILES
0.3,54.9,O=C(CN1CCN(CCNC(=O)c2[nH]c3cc(Cl)ccc3c2-c2c(-c3ccccc3)ncn2Cc2ccc(Cl)cc2)CC1)Nc1cccnc1 [Example 271]
0.19,63.7,"O=C(NCCN1CCN(Cc2ccccn2)C1=O)c1[nH]c2cc(Cl)ccc2c1-c1c(-c2ccccc2)ncn1Cc1ccc(Cl)cc1 [Example 328, 6-Chloro-3-[3-(4-chloro-benzyl)-5-phenyl-3H-imidazol-4-yl]-1H-indole-2-carboxylic acid [2-(2-oxo-3-pyridin-2-ylmethyl-imidazolidin-1-yl)-ethyl]-amide]"
